Reference: US20210395327A1, “Growth Hormone-Releasing Hormone Antagonists and Uses Thereof” (United States Government As Represented By The Department …, priority 2019, published 2021)
Non-standard residues stand in square brackets, D forms with d. Residues, ends and D or L forms follow the SMILES beside them. *: point of attachment. Phe(F5) = N[C@@H](Cc1c(F)c(F)c(F)c(F)c1F)C(=O)O; hArg = N=C(N)NCCCC[C@H](N)C(=O)O; 12Ado = NCCCCCCCCCCCC(=O)O; Nle = CCCC[C@H](N)C(=O)O; Orn = NCCC[C@H](N)C(=O)O; Abu = CC[C@H](N)C(=O)O; PhAc = O=C(Cc1ccccc1)*

Assays:
[1] = tested on: OVCAR-3 ovarian cancer cells; assay: In vitro cell viability, OVCAR-3; assay type: cell-based, human; conditions: Table 3B; * at 2 μM for 72 H; MIA-602 = 1
Description: (§1) The inhibitory effects of the various synthesized GHRH antagonists were tested in cell proliferation assays in various human cancer cell lines including stomach cancer (KATOIII, N87), colon cancer (HT-29), urothelial cancer (J82, RT4), pancreatic cancer (PANC-1, CFPAC-1), prostatic cancer (PC3), breast cancer (MX-1, HCC1806), ovarian cancer (SK-OV-3, OVCAR-3) and lung cancer (HCC827, H460).
(§2) Cell culture. Human cancer cell lines including pancreatic (PANC-1 and CFPAC-1), lung (HCC827 and H460), stomach (NCI-N87 and KATOIII), urothelial (J82, RT4), prostatic (PC3), breast (MX-1 and HCC 1806), colorectal (HT-29), and ovarian (SK-OV-3 and OVCAR-3) were obtained from the American Type Culture Collection (ATCC) and cultured at 37° C. in a humidified 95% air/5% CO2 atmosphere in the medium recommended by ATCC.
(§3) In vitro cell viability. Cell viability was analyzed as follows: cancer cells including pancreatic (PANC-1 and CFPAC-1), lung (HCC827 and H460), stomach (NCI-N87 and KATOIII), urothelial (J82, RT4), prostatic (PC3) and breast (MX-1 and HCC 1806), colorectal (HT-29) and ovarian (SK-OV-3 and OVCAR-3) were grown on 96 well plates to ˜60% confluence, the cells were starved for 24 h in culture medium containing 0.5% FBS. Cells were then treated with GHRH antagonists MIA602 AVR compounds at concentrations of 1, 2.5 or 5 μM, or vehicle (0.1% DMSO) in quintuplicates for 72 hours. The medium was replaced every 48 hours. Cell viability was measured using CellTiter 96 aqueous one solution kit (Promega). Inhibitory effects of tested AVR compounds in comparison to that of MIA602 are presented as inhibitory potency.
(§4) Inhibitory effects of selected AVR compounds in comparison to that of MIA602 are presented as inhibitory potency (e.g., percentage of inhibition). […] The cell lines tested including lung cancer HCC827 (FIG. 2A), pancreatic cancer CFPAC-1 (FIG. 2B), stomach cancer N87 (FIG. 2C), colon cancer HT-29 (FIG. 2D), breast cancers MX-1 and HCC1806 (FIGS. 2 E, F). […]

[2] = tested on: pancreatic cancer PANC-1 xenograft; assay: Xenograft tumor growth in nude mice, PANC-1; assay type: in vivo; conditions: Table 4A, Pancreatic Ca PANC-1, 7 weeks, 5 μg/day s.c.
Description: (§5) The peptides' activity was compared with GHRH antagonist MIA-602. All statistical analyzses were performed from comparing GHRA antagonists to non-treated tumor (control).
(§6) Peptides and chemicals. GHRH antagonists MIA-602 and AVR-GHRH antagonists (see Table 2 above) were synthesized by solid phase methods and purified by HPLC. The peptides were dissolved in DMSO and further diluted in 10% 1,2-propanediol. The final concentration of peptides was 50 µg/ml in 10% 1,2-propanediol containing 0.1% of DMSO.
as §2, with “(NCI-N87), prostate” for “(NCI-N87 and KATOIII), urothelial (J82, RT4), prostatic”, “brest” for “breast”, “HCC-1806),” for “HCC 1806),”
(§7) Xenograft models of human cancers in nude mice. Female athymic (NCr nu/nu) nude mice, 5- to 6-weeks-old, obtained from the Envigo labs (Tampa, Fla.), were housed in laminar airflow cabinets under pathogen-free conditions with a 12-h light/12-h dark schedule, and were fed autoclaved standard chow and water. To generate mice with xenografted tumors, tumor xenografts were initiated by subcutaneous (s.c.) injection of 107 human cancer cells into female nude mice. After about 4 weeks the resulting tumors were dissected and collected after removing necrosis tissues. The tumors were then cut into particles with size of 3 mm3 and transplanted s.c. by trocar needle into experimental animals. When tumors grew to the size of 50-60 mm3 (by volume), mice were randomized into groups and treated daily for 4-8 weeks by subcutaneous administration of 5 μg of GHRH antagonists MIA-602 or AVR-compounds (2-10 μg as indicated), or vehicle solutions (0.1% DMSO in 10% 1,2-propanediol) respectively. Tumor sizes were measured weekly.
(§8) Statistical analysis. One-way ANOVA followed by Bonferroni comparison were performed. Data are expressed as Mean±SEM. To determine statistical significance between animal groups, two-tailed Student's t-test was conducted. Differences were considered significant when p<0.05.
(§9) Results. […] FIG. 1A-N represents in vivo inhibition of tumor growth during the treatment with GHRH antagonist MIA-602 and selected AVR antagonists in nude mice xenografted with various human tumors including pancreatic cancer PANC-1 (FIG. 1A) and CFPAC-1 (FIG. 1I); lung cancer HCC827 (FIGS. 1B, C) and H460 (FIG. 1H); stomach cancer N87 (FIGS. 1D-F); colon cancer HT-29 (FIG. 1G); breast cancer MX-1 and HCC-1806 (FIGS. 1J, K); ovarian cancer SK-OV-3 and OVACAR-3 (FIGS. 1 L, M) and prostate cancer PC3 (FIG. 1N). See also Table 5.

[3] = tested on: breast cancer MX-1 xenograft; assay: Xenograft tumor growth in nude mice, MX-1; assay type: in vivo; conditions: Table 4J, Breast Ca MX-1, 4 weeks, 5 μg/day s.c.
Description: as §5, §6
as §2, with “(NCI-N87), prostate” for “(NCI-N87 and KATOIII), urothelial (J82, RT4), prostatic”, “brest” for “breast”, “HCC-1806),” for “HCC 1806),”
as §7, §8, §9

[4] = tested on: breast cancer HCC-1806 xenograft; assay: Xenograft tumor growth in nude mice, HCC-1806; assay type: in vivo; conditions: Table 4K, Breast Ca HCC-1806, 5 weeks, 5 μg/day s.c.
Description: as §5, §6
as §2, with “(NCI-N87), prostate” for “(NCI-N87 and KATOIII), urothelial (J82, RT4), prostatic”, “brest” for “breast”, “HCC-1806),” for “HCC 1806),”
as §7, §8, §9

[5] = tested on: ovarian cancer OVCAR-3 xenograft; assay: Xenograft tumor growth in nude mice, OVCAR-3; assay type: in vivo; conditions: Table 4M, Ovarian Ca OVCAR-3, 9 weeks, 5 μg/day s.c.
Description: as §5, §6
as §2, with “(NCI-N87), prostate” for “(NCI-N87 and KATOIII), urothelial (J82, RT4), prostatic”, “brest” for “breast”, “HCC-1806),” for “HCC 1806),”
as §7, §8, §9

[6] = tested on: SK-OV-3 ovarian cancer cells; assay: In vitro cell viability, SK-OV-3; assay type: cell-based, human; conditions: Table 3B; * at 2 μM for 72 H; MIA-602 = 1
Description: as §1, §2, §3, §4

[7] = tested on: J82 urothelial cancer cells; assay: In vitro cell viability, J82; assay type: cell-based, human; conditions: antagonist 5 μM for 72 h, cell proliferation assay; MIA602 = 1
Procedure, shortened: (§10)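 Cells grown to ~60% confluence, serum-starved 24 h in 0.5% FBS, then treated with antagonists at 1, 2.5 or 5 μM or vehicle (0.1% DMSO) in quintuplicate for 72 h, medium replaced every 48 h. Viability read by MTS-type CellTiter 96 AQueous One assay; expressed as inhibitory potency relative to MIA602.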

[8] = tested on: PANC-1 pancreatic cancer cells; assay: In vitro cell viability, PANC-1; assay type: cell-based, human; conditions: antagonist 5 μM for 72 h, cell proliferation assay; MIA602 = 1
Procedure, shortened: as §10

For `CCCC[C@H](NC(=O)[C@@H](NC(=O)[C@H](CC(=O)O)NC(=O)[C@H](CCC(N)=O)NC(=O)[C@H](CC(C)C)NC(=O)[C@H](CC(C)C)NC(=O)[C@H](CCCN)NC(=O)[C@H](Cc1c[nH]cn1)NC(=O)[C@H](C)NC(=O)[C@H](CO)NC(=O)[C@H](CC(C)C)NC(=O)[C@H](CCC(N)=O)NC(=O)[C@H](CC)NC(=O)[C@H](CC(C)C)NC(=O)[C@@H](NC(=O)[C@H](CCCN)NC(=O)[C@H](Cc1c[nH]cn1)NC(=O)[C@H](Cc1ccc(OC)cc1)NC(=O)[C@H](CCCCNC(=N)N)NC(=O)[C@H](C)NC(=O)[C@@H](NC(=O)[C@H](Cc1c(F)c(F)c(F)c(F)c1F)NC(=O)[C@@H](NC(=O)[C@H](C)NC(=O)[C@H](CC(=O)O)NC(=O)[C@@H](CCCNC(=N)N)NC(=O)[C@H](Cc1ccc(O)cc1)NC(=O)CCCCCCCCCCCNC(=O)Cc1ccccc1)[C@@H](C)CC)[C@@H](C)O)C(C)C)[C@@H](C)CC)C(=O)N[C@H](CCCNC(=N)N)C(=O)N[C@@H](CCCCNC(=N)N)C(N)=O` [MIA-602, PhAC-Ada, Tyr D-Arg, Asp, Ala, Ile, 5FPhe, Thr, Ala, Har, Tyr(Me), His, Orn, Val, Leu, Abu, Gin, Leu, Ser, Ala, His, Om, Leu, Leu, Gin, Asp, Ile; Nle, D-Arg, Har NH2, reference compound] ({PhAc-12Ado}-Y[dR]DAI[Phe(F5)]TA[hArg]Y(Me)H[Orn]VL[Abu]QLSAH[Orn]LLQDI[Nle][dR][hArg]-NH2), the “In vitro relative inhibitory potency in comparison to MIA-602, OVCAR-3” value [1] was 1, the “Tumor Growth %” value [2] was 1572.7% and the “% Inhibition” value ([2]; vs control) was 41.1%. For the same compound, the “Tumor Growth %” value [3] was 677.3%, the “% Inhibition” value ([3]; vs control) was 39.2% and the “Tumor Growth %” value [4] was 529.4%. For the same compound, the “% Inhibition” value ([4]; vs control) was 55.7%, the “Tumor Size (mm3)” value [5] was 267.2 mm3 and the “% Inhibition” value ([5]; vs control) was 44.4%. The “In vitro relative inhibitory potency in comparison to MIA-602, SKOV-3” value [6] was 1, the “relative inhibitory potency in comparison to MIA-602, Urothelial J82” value [7] was 1 and the “relative inhibitory potency in comparison to MIA-602, Pancreatic Panc-1” value [8] was 1.
